This note sets out measurements from patent publication US12570659B2, “Bicyclic heteroaryl compounds useful as IRAK4 inhibitors” (BRISTOL-MYERS SQUIBB COMPANY, priority 2019, dated 2026).

The structures appear in SMILES notation.

In one assay the target is IRAK4 (Homo sapiens (Human), UniProt Q9NWZ3). The assay can be described thus: IRAK4 Inhibition Assay. Conditions: ATP 500 μM; IRAK4 0.6 nM; 60 min room temperature. The format is biochemical. The procedure, abridged:
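Phosphorylated and unphosphorylated fluorescent substrate were resolved by microfluidic electrophoresis after termination with 35 mM EDTA. The room-temperature kinase reaction lasted 60 min after IRAK4, substrates and test compound were combined; vehicle-only defined 0% and no-enzyme 100% inhibition.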

The test system of assay [1] is TLR2 agonist-stimulated IL-6 in human whole blood. The assay can be described thus: IRAK4 Whole Blood Assay. In kind it is cell-based. The settings on record: lipoteichoic acid 10 μg/mL, 5 hours, IL-6 levels. The procedure: Human whole blood containing the anti-coagulant ACD-A was plated in 384-well plate (25 μL/well) and incubated with compounds for 60 minutes at 37° C. in a 5% CO2 incubator. The blood was stimulated with a TLR2 agonist, 10 μg/mL final concentration of lipoteichoic acid (Invivogen, San Diego, CA) in 25 μL RPMI (Gibco) for 5 hours in a 5% CO2 incubator. At the end of the incubation, plates were centrifuged at 2300 rpm for 5 minutes. Supernatants were harvested and analyzed for IL-6 levels by Flow Cytometry beads assay (BD Biosciences, San Jose, CA).

In another assay the target is JAK3 kinase (Homo sapiens (Human), UniProt P52333). The assay can be described thus: JAK3 Homogeneous Time Resolved Fluorescence (HTRF) Assay. The format is binding. The settings on record: for IC50: competition binding with fluorescein-labeled ATP competitive probe; for Ratio of JAK3 IC50 to IRAK4 IC50: selectivity for IRAK4 over JAK3. The gist of the method:
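IC50 reflects displacement of a fluorescein-labeled ATP-site probe (at its Kd) from 1 nM tagged JAK3, detected via 0.2 nM Tb anti-His or anti-GST antibody. One-hour incubation; 495 and 520 nm emission ratios, background-subtracted, normalized to maximum signal; 11-point percent inhibition, 4-parameter logistic.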
A general note: TR-FRET usually uses a lanthanide donor and a delayed reading to cut background.

Sequence of IRAK4 (Q9NWZ3 whole entry, species assumed): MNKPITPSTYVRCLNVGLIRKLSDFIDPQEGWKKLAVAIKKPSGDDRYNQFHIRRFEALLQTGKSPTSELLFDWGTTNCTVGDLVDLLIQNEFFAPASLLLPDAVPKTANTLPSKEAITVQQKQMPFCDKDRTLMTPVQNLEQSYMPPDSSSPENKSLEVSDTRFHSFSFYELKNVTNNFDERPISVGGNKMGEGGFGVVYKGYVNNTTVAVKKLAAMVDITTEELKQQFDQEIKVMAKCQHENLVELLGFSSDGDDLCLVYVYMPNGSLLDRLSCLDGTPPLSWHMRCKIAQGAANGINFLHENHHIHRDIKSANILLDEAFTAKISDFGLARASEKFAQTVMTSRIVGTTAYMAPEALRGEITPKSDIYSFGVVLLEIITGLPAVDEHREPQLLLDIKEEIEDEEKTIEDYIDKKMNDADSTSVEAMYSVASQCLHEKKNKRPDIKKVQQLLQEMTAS
Sequence of JAK3 kinase (P52333 whole entry): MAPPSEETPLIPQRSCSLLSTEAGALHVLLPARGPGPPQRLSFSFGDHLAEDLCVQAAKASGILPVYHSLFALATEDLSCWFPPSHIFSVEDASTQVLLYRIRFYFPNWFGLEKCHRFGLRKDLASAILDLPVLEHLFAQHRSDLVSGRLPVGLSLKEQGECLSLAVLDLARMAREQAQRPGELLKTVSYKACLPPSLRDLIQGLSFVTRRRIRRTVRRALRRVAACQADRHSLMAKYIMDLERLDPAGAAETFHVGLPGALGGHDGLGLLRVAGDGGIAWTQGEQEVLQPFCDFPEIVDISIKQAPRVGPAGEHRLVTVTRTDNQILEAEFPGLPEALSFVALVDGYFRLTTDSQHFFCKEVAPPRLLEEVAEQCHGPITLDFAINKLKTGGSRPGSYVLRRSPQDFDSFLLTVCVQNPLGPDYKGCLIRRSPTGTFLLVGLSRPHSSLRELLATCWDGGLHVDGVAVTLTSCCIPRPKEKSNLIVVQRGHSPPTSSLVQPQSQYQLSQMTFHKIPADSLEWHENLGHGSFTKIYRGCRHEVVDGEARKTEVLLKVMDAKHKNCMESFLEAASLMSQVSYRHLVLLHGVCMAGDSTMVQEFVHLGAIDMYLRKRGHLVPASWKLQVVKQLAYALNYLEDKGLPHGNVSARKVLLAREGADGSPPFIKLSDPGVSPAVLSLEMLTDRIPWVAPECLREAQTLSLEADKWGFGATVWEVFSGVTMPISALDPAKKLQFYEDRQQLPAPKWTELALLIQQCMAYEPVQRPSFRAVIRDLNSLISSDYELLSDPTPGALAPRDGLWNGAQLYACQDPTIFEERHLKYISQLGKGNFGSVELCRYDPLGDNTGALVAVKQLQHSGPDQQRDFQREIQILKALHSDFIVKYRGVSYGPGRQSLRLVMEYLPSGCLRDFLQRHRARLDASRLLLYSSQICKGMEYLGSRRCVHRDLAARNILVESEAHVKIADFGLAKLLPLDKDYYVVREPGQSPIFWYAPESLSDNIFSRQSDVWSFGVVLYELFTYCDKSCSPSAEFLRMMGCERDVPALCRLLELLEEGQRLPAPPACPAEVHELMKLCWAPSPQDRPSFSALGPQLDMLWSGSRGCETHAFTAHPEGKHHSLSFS

As usually defined, the IC50 is the concentration that inhibits the measured activity by half. For `CC(C)Nc1c(C(=O)NC[C@@H](F)C(C)(C)O)cnn2cc(-c3ccc(C#N)cc3)cc12` [Example 1, (R)-6-(4-cyanophenyl)-N-(2-fluoro-3-hydroxy-3-methylbutyl)-4-(isopropylamino)pyrrolo[1,2-b]pyridazine-3-carboxamide], the IC50 is 12 nM at IRAK4, above 10000 nM in assay [1] and 20000 nM on JAK3 kinase. For the same compound, the “Ratio of JAK3 IC50 to IRAK4 IC50” value at JAK3 kinase was 1667.
Regarding `CC(C)Nc1c(C(=O)NC[C@@H](F)C(C)(C)O)cnn2cc(-c3cccc(C#N)c3)cc12` [Example 2, (R)-6-(3-cyanophenyl)-N-(2-fluoro-3-hydroxy-3-methylbutyl)-4-(isopropylamino) pyrrolo[1,2-b]pyridazine-3-carboxamide], the IC50 on IRAK4 is 12 nM; in assay [1], above 10000 nM.
On to `CC(C)Nc1c(C(=O)NC[C@@H](F)C(C)(C)O)cnn2cc(-c3cccnc3)cc12` [Example 3, (R)—N-(2-fluoro-3-hydroxy-3-methylbutyl)-4-(isopropylamino)-6-(pyridin-3-yl)pyrrolo[1,2-b]pyridazine-3-carboxamide], for which the IC50 on IRAK4 stood at 16 nM; in assay [1], 9500 nM; at JAK3 kinase it was 31000 nM. Moreover, the “Ratio of JAK3 IC50 to IRAK4 IC50” value on JAK3 kinase worked out at 1938.
Turning to `CC(C)Nc1c(C(=O)NC[C@@H](F)C(C)(C)O)cnn2cc(-c3ccncc3)cc12` [Example 5, (R)—N-(2-fluoro-3-hydroxy-3-methylbutyl)-4-(isopropylamino)-6-(pyridin-4-yl)pyrrolo[1,2-b]pyridazine-3-carboxamide], the IC50 at IRAK4 is 9.2 nM; in assay [1], 4600 nM; at JAK3 kinase, 29000 nM. Moreover, the “Ratio of JAK3 IC50 to IRAK4 IC50” value on JAK3 kinase worked out at 3152.
The matching figures for `CC(C)Nc1c(C(=O)NC[C@@H](F)C(C)(C)O)cnn2cc(-c3cn[nH]c3)cc12` [Example 34, (R)—N-(2-fluoro-3-hydroxy-3-methylbutyl)-4-(isopropylamino)-6-(1H-pyrazol-4-yl) pyrrolo[1,2-b]pyridazine-3-carboxamide]: 6.7 nM, above 10000 nM, above 10000 nM and above 1493.
For `CC(C)Nc1c(C(=O)NCCC(C)(C)O)cnn2cc(-c3ccncc3F)cc12` [Example 77, 6-(3-fluoropyridin-4-yl)-N-(3-hydroxy-3-methylbutyl)-4-(isopropylamino)pyrrolo[1,2-b]pyridazine-3-carboxamide], the IC50 was found to be 4.3 nM at IRAK4 and 1310 nM in assay [1].
On to `Cc1cncc(-c2cc3ncc(C(=O)NC[C@@H](F)C(C)(C)O)c(NC(C)C)n3n2)c1` [Example 146, (R)—N-(2-fluoro-3-hydroxy-3-methylbutyl)-7-(isopropylamino)-2-(5-methylpyridin-3-yl)pyrazolo[1,5-a]pyrimidine-6-carboxamide], for which the IC50 is 480 nM on IRAK4 and above 50000 nM at JAK3 kinase. Also, the “Ratio of JAK3 IC50 to IRAK4 IC50” value at JAK3 kinase was above 104.
The matching figures for `CC(C)Nc1c(C(=O)NC[C@@H](F)C(C)(C)O)cnc2cc(C3CC3)nn12` [Example 147, (R)-2-cyclopropyl-N-(2-fluoro-3-hydroxy-3-methylbutyl)-7-(isopropylamino)pyrazolo[1,5-a]pyrimidine-6-carboxamide]: 420 nM, above 50000 nM and above 119.
Turning to `COc1cc(-c2cc3ncc(C(=O)NC[C@@H](F)C(C)(C)O)c(NC(C)C)n3n2)ccn1` [Example 148, (R)—N-(2-fluoro-3-hydroxy-3-methylbutyl)-7-(isopropylamino)-2-(2-methoxypyridin-4-yl)pyrazolo[1,5-a]pyrimidine-6-carboxamide], on IRAK4, the IC50 came out at 61 nM. Besides, at JAK3 kinase, the IC50 was above 10000 nM and the “Ratio of JAK3 IC50 to IRAK4 IC50” value is above 164.
In the case of `COC(=O)c1cncc(-c2cc3ncc(C(=O)NC[C@@H](F)C(C)(C)O)c(NC(C)C)n3n2)c1` [Example 149, methyl (R)-5-(6-((2-fluoro-3-hydroxy-3-methylbutyl)carbamoyl)-7-(isopropylamino)pyrazolo[1,5-a]pyrimidin-2-yl)nicotinate], the IC50 at IRAK4 was found to be 210 nM. Also, on JAK3 kinase, the IC50 was above 50000 nM and the “Ratio of JAK3 IC50 to IRAK4 IC50” value is reported as above 238.
Turning to `CC(C)Nc1c(C(=O)NC[C@@H](F)C(C)(C)O)cnc2cc(-c3cncc(C(C)(C)O)c3)nn12` [Example 150, (R)—N-(2-fluoro-3-hydroxy-3-methylbutyl)-2-(5-(2-hydroxypropan-2-yl)pyridin-3-yl)-7-(isopropylamino)pyrazolo[1,5-a]pyrimidine-6-carboxamide], the IC50 on IRAK4 stood at 560 nM. Further, on JAK3 kinase, the IC50 was above 10000 nM and the “Ratio of JAK3 IC50 to IRAK4 IC50” value is above 18.
Regarding `CC(C)Nc1c(C(=O)NC[C@@H](F)C(C)(C)O)cnc2cc(-n3ccccc3=O)nn12` [Example 151, (R)—N-(2-fluoro-3-hydroxy-3-methylbutyl)-7-(isopropylamino)-2-(2-oxopyridin-1(2H)-yl)pyrazolo[1,5-a]pyrimidine-6-carboxamide], the IC50 on IRAK4 came to 580 nM. At JAK3 kinase, the half-maximal inhibitory concentration (IC50) is above 50000 nM and the “Ratio of JAK3 IC50 to IRAK4 IC50” value is given as above 86.
For `CC(C)Nc1c(C(=O)NC[C@@H](F)C(C)(C)O)cnc2cc(-c3ccccn3)nn12` [Example 152, (R)—N-(2-fluoro-3-hydroxy-3-methylbutyl)-7-(isopropylamino)-2-(pyridin-2-yl)pyrazolo[1,5-a]pyrimidine-6-carboxamide] the same measures were 160 nM, above 10000 nM and above 63.
The matching figures for `CC(C)Nc1c(C(=O)NC[C@@H](F)C(C)(C)O)cnc2cc(-c3cccc(Cl)n3)nn12` [Example 153, (R)-2-(6-chloropyridin-2-yl)-N-(2-fluoro-3-hydroxy-3-methylbutyl)-7-(isopropylamino) pyrazolo[1,5-a]pyrimidine-6-carboxamide]: 1230 nM, above 10000 nM and above 8.
On to `CC(C)Nc1c(C(=O)NC[C@@H](F)C(C)(C)O)cnc2cc(-c3cc[nH]c(=O)c3)nn12` [Example 154, (R)—N-(2-fluoro-3-hydroxy-3-methylbutyl)-7-(isopropylamino)-2-(2-oxo-1,2-dihydropyridin-4-yl)pyrazolo[1,5-a]pyrimidine-6-carboxamide], for which the IC50 on IRAK4 is 93 nM. Besides, at JAK3 kinase, the IC50 was above 50000 nM and the “Ratio of JAK3 IC50 to IRAK4 IC50” value is listed as above 538.
For `CC(C)(C)CNc1c(C(=O)NC[C@@H](F)C(C)(C)O)cnc2cc(-c3cccnc3)nn12` [Example 155, (R)—N-(2-fluoro-3-hydroxy-3-methylbutyl)-7-(neopentylamino)-2-(pyridin-3-yl)pyrazolo[1,5-a]pyrimidine-6-carboxamide] the same measures were 90 nM, above 50000 nM and above 556.
On to `CNC(=O)c1cncc(-c2cc3ncc(C(=O)NC[C@@H](F)C(C)(C)O)c(NC(C)C)n3n2)c1` [Example 156, (R)—N-(2-fluoro-3-hydroxy-3-methylbutyl)-7-(isopropylamino)-2-(5-(methylcarbamoyl)pyridin-3-yl)pyrazolo[1,5-a]pyrimidine-6-carboxamide], for which the IC50 on IRAK4 is 910 nM; on JAK3 kinase, above 10000 nM. Moreover, at JAK3 kinase, the “Ratio of JAK3 IC50 to IRAK4 IC50” value is above 11.
For `CC(C)Nc1c(C(=O)NC[C@@H](F)C(C)(C)O)cnc2cc(-c3cccc(N)c3)nn12` [Example 157, (R)-2-(3-aminophenyl)-N-(2-fluoro-3-hydroxy-3-methylbutyl)-7-(isopropylamino) pyrazolo[1,5-a]pyrimidine-6-carboxamide], the IC50 at IRAK4 is 31 nM; on JAK3 kinase it was above 50000 nM. Moreover, on JAK3 kinase, the “Ratio of JAK3 IC50 to IRAK4 IC50” value is listed as above 1613.
The matching figures for `CC(C)(O)[C@H](F)CNC(=O)c1cnc2cc(-c3cccnc3)nn2c1N[C@H]1CC[C@H](C(C)(C)O)CC1` [Example 159, N—((R)-2-fluoro-3-hydroxy-3-methylbutyl)-7-(((1r,4R)-4-(2-hydroxypropan-2-yl)cyclohexyl)amino)-2-(pyridin-3-yl)pyrazolo[1,5-a]pyrimidine-6-carboxamide]: 53 nM, above 50000 nM and above 943.
The matching figures for `CC(C)(O)[C@H](F)CNC(=O)c1cnc2cc(-c3ccncc3F)nn2c1NCCC1CCCCO1` (stereo partly drawn) [Example 160, N—((R)-2-fluoro-3-hydroxy-3-methylbutyl)-2-(3-fluoropyridin-4-yl)-7-((2-(tetrahydro-2H-pyran-2-yl)ethyl)amino)pyrazolo[1,5-a]pyrimidine-6-carboxamide]: 45 nM, above 50000 nM and above 1111.
Regarding `CC(C)Nc1c(C(=O)NCCNS(C)(=O)=O)cnc2cc(-c3ccncc3F)nn12` [Example 161, 2-(3-fluoropyridin-4-yl)-7-(isopropylamino)-N-(2-(methylsulfonamido)ethyl) pyrazolo[1,5-a]pyrimidine-6-carboxamide], on IRAK4, the IC50 is 160 nM. Further, at JAK3 kinase, the concentration for half-maximal inhibition (IC50) was above 10000 nM and the “Ratio of JAK3 IC50 to IRAK4 IC50” value is above 63.
